We go through eight compounds from patent US6696280B2, “Candida geranylgeranyl-protein transferase polypetide, compositions and methods related thereto” (GPC Biotech, Inc., priority 1996, dated 2004).

In data set [1] the target is T1, PKC1 (Saccharomyces cerevisiae, UniProt P24583).
T1 construct: made in house; host or cells: PKC1-HA immunoprecipitated from S. cerevisiae extract; GST-Rho1 from baculovirus-infected Sf9 cells
Briefly: PKC1 protein kinase assay with synthetic Bck1 peptide. The format is biochemical. The note with it: for Stimulation of PKC1 by cofactor: in the presence of GTP-bound GST-Rho1. Here is the method:
(§1) FIGS. 4A-4B. Rho1 allows cofactors to activate PKC1. FIG. 4A. Phosphorylation of synthetic Bck1 peptide by PKC1^HA immunoprecipitated from 50 μg of soluble yeast cell extract protein. Recombinant GST-Rho1 or GST-Cdc42 (1 μg) was preloaded with the indicated guanine nucleotide. Cofactors (80 μg/ml PS, 8 μg/ml DAG, and 100 μM CaCl2) were added to the reaction where indicated. Lanes 1 and 2 are control reactions with no GTPase. Mean and standard error for three experiments is shown. FIG. 4B. PS alone is sufficient to stimulate PKC1 fully in the presence of Rho1. Phosphorylation of Bck1 peptide by PKC1^HA in the presence of GTPγS-bound GST-Rho1 and the indicated cofactors. Conditions were as in FIG. 4A, except for PMA (16 ng/ml). Concentrations of PS as low as 8 μg/ml fully activated PKC1 (data not shown).
(§2) Yeast extract preparation, immunoprecipitation, immunodetection and protein kinase assays of Mpk1^HA were conducted as described previously (4). Preparation of cell extracts and immunoprecipitations for experiments with ^HARho1 were carried out as in (4) with some modifications. Lysis buffer without ρ-nitrophenyl phosphate and with 1% NP-40 was used. The extract (700 μg protein) was precleared by incubation with 20 μl of a 50% suspension of protein A-sepharose for 1 h prior to immunoprecipitation to eliminate non-specific binding of proteins to immunecomplexes. Beads were boiled in SDS-PAGE sample buffer, and samples were applied to 7.5% (for PKC1 blots) or 15% (for ^HARho1 blots) SDS-PAGE gels. For PKC1 kinase assays, all as described previously (5), except for the addition of recombinant GTPases (see below). A synthetic peptide corresponding to the sequence surrounding Ser939 of Bck1, a phosphorylation site for PKC 1, was used as substrate in PKC 1 kinase assays (5).
(§3) Recombinant Rho1 and Cdc42. Recombinant GST-Rho 1 and GST-Cdc42 were expressed and purified from baculovirus-infected insect (Sf9) cells, as described (23). For in vitro association with PKC1^HA, GST-Rho1 was not eluted from the glutathione agarose beads used for purification. GST-Rho1-bound beads were incubated with cell extract in immunoprecipitation buffer (4) for 5 h at 4° C., followed by 3 washes with this buffer. For use in PKC1^HA protein kinase assays, GST-Rho1 and GST-Cdc42 were eluted from the beads with reduced glutathione.
T1 sequence (P06780 2-206, one chain of several): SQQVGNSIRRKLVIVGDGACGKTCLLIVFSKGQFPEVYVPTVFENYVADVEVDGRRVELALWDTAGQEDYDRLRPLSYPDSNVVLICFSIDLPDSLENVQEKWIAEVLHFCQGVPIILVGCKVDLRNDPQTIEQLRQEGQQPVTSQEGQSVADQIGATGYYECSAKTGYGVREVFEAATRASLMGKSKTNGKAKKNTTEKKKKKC

The test system of data set [2] is rho1 mutant strains YOC752 (rho1-2), YOC729 (rho1-3), YOC755 (rho1-5). Briefly: Drug sensitivity of conditional rho1 mutants. Type of data set: cell-based, Saccharomyces cerevisiae. Conditions: 23° C.
For the next data set, the system named is CaGGTase. Briefly: Km determination, prenylation (TCA precipitation) assay. Type of data set: biochemical, Candida. As for the experimental part:
Briefly, a DEAE FF column is used for the first chromatographic step. The fractions from the columns in the purification are assayed for both GGTase and Ftase. For GGTase, 0.2 μM CaRho and 0.5 μM GGPP are used. For the FTase assay, 0.5 μM N-ras and 0.5 μM FPP are used. Both reactions are for 20-30 minutes at 37° C. The GGTase activity and FTase activity overlapped on the intial chromatography step, although the FTase activity was slightly shifted to the later fractions. The majority of the GGTase activity is pooled and then run on a SourceQ column, which separates the FTase and GGTase activities.
The fractions from the columns in the purification are being assayed for both GGtase and FTase. For GGTase 0.2 uM CaRho and 0.5 uM GGPP are used. For the FTase assay 0.5 uM N-ras and 0.5 uM FPP are used. Both reactions are for 20-30 minutes at 37°.
The second column (20 mL) Source Q separated the FTase from the GGTase The salt gradient was stretched out for 10 column volumes and 3.5 mL fractions were collected. Fraction 16 and 17 were used for Km and IC50 studies by Marc P.

Data set [3] addresses T2, PKC1 (Saccharomyces cerevisiae, UniProt P24583).
T2 construct: made in house; host or cells: PKC1-HA immunoprecipitated from S. cerevisiae extract; GST-Rho1 from baculovirus-infected Sf9 cells
T2 sequence (P24583 1-1151): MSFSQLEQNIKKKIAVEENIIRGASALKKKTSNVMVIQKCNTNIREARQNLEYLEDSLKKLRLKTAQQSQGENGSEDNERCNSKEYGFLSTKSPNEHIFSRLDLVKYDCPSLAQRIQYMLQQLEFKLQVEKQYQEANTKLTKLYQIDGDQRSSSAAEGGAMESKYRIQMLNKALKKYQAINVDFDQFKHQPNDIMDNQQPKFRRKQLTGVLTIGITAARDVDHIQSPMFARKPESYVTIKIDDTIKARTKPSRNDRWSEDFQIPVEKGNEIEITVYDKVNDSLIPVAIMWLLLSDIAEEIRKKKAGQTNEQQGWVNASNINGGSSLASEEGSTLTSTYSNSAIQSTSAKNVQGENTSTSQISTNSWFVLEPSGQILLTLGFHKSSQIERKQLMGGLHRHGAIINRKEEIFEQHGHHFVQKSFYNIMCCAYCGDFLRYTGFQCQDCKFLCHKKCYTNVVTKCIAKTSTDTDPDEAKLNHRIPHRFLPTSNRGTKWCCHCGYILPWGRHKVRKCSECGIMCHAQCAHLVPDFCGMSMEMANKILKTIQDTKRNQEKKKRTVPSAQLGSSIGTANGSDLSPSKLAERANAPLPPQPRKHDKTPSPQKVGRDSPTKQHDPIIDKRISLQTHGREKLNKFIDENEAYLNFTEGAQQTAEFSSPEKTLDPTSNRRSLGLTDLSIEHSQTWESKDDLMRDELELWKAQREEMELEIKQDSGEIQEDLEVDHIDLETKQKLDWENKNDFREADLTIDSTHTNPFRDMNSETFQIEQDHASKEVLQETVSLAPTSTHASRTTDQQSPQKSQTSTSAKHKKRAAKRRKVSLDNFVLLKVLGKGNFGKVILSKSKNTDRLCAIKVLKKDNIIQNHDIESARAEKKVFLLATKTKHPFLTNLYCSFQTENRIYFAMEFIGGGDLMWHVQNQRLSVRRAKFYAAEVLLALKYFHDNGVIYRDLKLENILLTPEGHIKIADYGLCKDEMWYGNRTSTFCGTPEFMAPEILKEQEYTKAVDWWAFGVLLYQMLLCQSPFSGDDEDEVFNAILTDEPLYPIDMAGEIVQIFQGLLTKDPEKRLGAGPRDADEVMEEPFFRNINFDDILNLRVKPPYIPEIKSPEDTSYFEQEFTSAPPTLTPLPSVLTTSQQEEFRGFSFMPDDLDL
Briefly: PKC1 protein kinase assay with synthetic Bck1 peptide. The format is biochemical. Conditions: with or without cofactors PS, DAG, Ca2+. Here is the method:
as §1, §2, §3

The test system of a further data set is 1,3-β-glucan synthase. Briefly: Reconstitution of GS activity in rho1-3 membranes. Type of data set: biochemical, Saccharomyces cerevisiae. The note with it: 37° C., 1 μg recombinant GTPase, 50 μM GTPγS. Here is the method: FIGS. 6A-6C. GS activity from rho1 mutants (See reference of Example 3). FIG. 6A. GS activity is thermolabile in rho1^ts mutants. Crude extracts were made from cells growing at room temperature, and assayed for GS activity at the indicated temperatures in the presence of 50 μM GTPγS. FIG. 6B. Reconstitution of GS activity in rho 1-3 membranes with recombinant Rho1. GS activity in rho1-3 membrane fractions was measured at 37° C. in the presence of 1 μg of the indicated recombinant GTPase and 50 μM GTPγS (19). FIG. 6C. Reconstituted GS activity requires GTP. GS activity in wild-type membranes or rho1-3 membranes complemented with 1 μg of GST-Rho1 was measured at 37° C. in the presence of the indicated guanine nucleotide (20 μM). Results are expressed as percent activity relative to GTPγS.
18. Crude yeast extracts were prepared as described [Y. Kamada et al., (1995) Genes Dev. 9:1559], and stored at −80° C. in lysis buffer supplemented with 33% glycerol. Membrane fractions, where indicated, were obtained from crude extracts and 1,3-β-glucan synthase (GS) activity was measured as described in (2) with the following modifications: UDP-[^3H]glucose was used as the substrate and α-amylase (1 U/40 μl) was added to reaction mixtures to eliminate the contribution of [^3H]glucose incorporation into glycogen. For all GS assays, the mean and standard error for four experiments is shown.
19. […]

Turning to diacylglycerol [DAG], at PKC1 [1], the “Stimulation of PKC1 by cofactor” value is on record as “No additional stimulation”.
As to echinocandin B, in data set [2], the “Sensitivity of rho1 mutants to drug” value is recorded as “hypersensitivity”.
On to `O=S(=O)(O)c1cc(Nc2nc(Nc3ccccc3)nc(N(CCO)CCO)n2)ccc1/C=C/c1ccc(Nc2nc(Nc3ccccc3)nc(N(CCO)CCO)n2)cc1S(=O)(=O)O` [Calcofluor white], for which, in data set [2], the “Sensitivity of rho1 mutants to drug” value is “hypersensitivity”.
phosphatidylserine: the “Stimulation of PKC1 by cofactor” value at PKC1 [1] was “strongly activated”. Moreover, the “Concentration of PS that fully activated PKC1” value at PKC1 [1] (in the presence of GTPγS-bound GST-Rho1, data not shown) was no more than 8 µg/mL.
Regarding “huRhoA: human RhoA GTPase, protein substrate”, in the data set with CaGGTase, the “Km Values” is reported as “Nor is human RhoA a substrate”.
Take `CCCCCCCCCCCCCC(=O)O[C@@H]1[C@@H](C)[C@@]2(O)[C@@H](C=C(CO)C[C@]3(O)C(=O)C(C)=C[C@@H]23)[C@@H]2C(C)(C)[C@]12OC(C)=O` [PMA, phorbol myristate acetate]: the “Stimulation of PKC1 by cofactor” value at PKC1 [1] is recorded as “No additional stimulation”.
Regarding `[Ca+2]` [Ca^2+], on PKC1 [1], the “Stimulation of PKC1 by cofactor” value was “No additional stimulation”.
In the case of “GST-Rho1: recombinant glutathione-S-transferase-Rho1 fusion purified from Sf9 insect cells”, the “Stimulation of PKC1 activity by recombinant GTPase” value in the data set with PKC1 [3] is given as “did not stimulate PKC1 activity alone”. In addition, the “Restoration of GS activity” value with 1,3-β-glucan synthase is reported as “restored fully”.
